In ChEMBL document CHEMBL4699471, “Design and synthesis of purine connected piperazine derivatives as novel inhibitors of Mycobacterium tuberculosis” (2020):
In brackets after ≈: the same amount, converted by molar mass.

Each compound was assayed on Mycobacterium tuberculosis (assay: Antimycobacterial activity against Mycobacterium tuberculosis H37Rv assessed as inhibition of bacterial growth by MABA assay).
Format: functional
CC#CCn1c(N2CCN(C(=O)c3nccnc3Cl)CC2)nc2c1c(=O)n(Cc1ccc(F)c(F)c1)c(=O)n2C was tested, and the MIC was 44 µM (≈ 25 µg/mL). CC#CCn1c(N2CCN(C(=S)Nc3c(F)cccc3Cl)CC2)nc2c1c(=O)n(Cc1ccc(F)c(F)c1)c(=O)n2C was tested, and the MIC was 40.6 µM (≈ 25 µg/mL). Compound CC#CCn1c(N2CCN(C(=O)c3cccc4ccccc34)CC2)nc2c1c(=O)n(Cc1ccc(F)c(F)c1)c(=O)n2C has an MIC of 53.3 µM (≈ 31 µg/mL). Compound CC#CCn1c(N2CCN(C(=O)C3Cc4ccccc4N3)CC2)nc2c1c(=O)n(Cc1ccc(F)c(F)c1)c(=O)n2C (stereo not drawn) has an MIC of 43.6 µM (≈ 25 µg/mL). CC#CCn1c(N2CCN(C(=O)c3csc(Br)n3)CC2)nc2c1c(=O)n(Cc1ccc(F)c(F)c1)c(=O)n2C gave an MIC of 40.5 µM (≈ 25.1 µg/mL). Work on CC#CCn1c(N2CCN(C(=O)c3cccc(F)c3)CC2)nc2c1c(=O)n(Cc1ccc(F)c(F)c1)c(=O)n2C yielded an MIC of 45.4 µM (≈ 25 µg/mL). For CC#CCn1c(N2CCN(C(=S)Nc3ccc(Cl)cc3)CC2)nc2c1c(=O)n(Cc1ccc(F)c(F)c1)c(=O)n2C, the MIC was 34.5 µM (≈ 20.6 µg/mL). In the case of CC#CCn1c(N2CCN(C(=O)Nc3ccccc3Cl)CC2)nc2c1c(=O)n(Cc1ccc(F)c(F)c1)c(=O)n2C, the MIC is reported as 49.2 µM (≈ 28.7 µg/mL). Work on CC#CCn1c(N2CCN(C(=S)Nc3ccccc3Br)CC2)nc2c1c(=O)n(Cc1ccc(F)c(F)c1)c(=O)n2C yielded an MIC of 39 µM (≈ 25.1 µg/mL). CC#CCn1c(N2CCN(S(=O)(=O)c3ccccc3)CC2)nc2c1c(=O)n(Cc1ccc(F)c(F)c1)c(=O)n2C was tested, and the MIC was 44 µM (≈ 25 µg/mL). CC#CCn1c(N2CCN(C(=O)Nc3ccc(C(F)(F)F)cc3)CC2)nc2c1c(=O)n(Cc1ccc(F)c(F)c1)c(=O)n2C was tested, and the MIC was 5.08 µM (≈ 3.13 µg/mL). With CC#CCn1c(N2CCN(C(=O)C3CCC3)CC2)nc2c1c(=O)n(Cc1ccc(F)c(F)c1)c(=O)n2C the MIC was 49 µM (≈ 25 µg/mL). Compound CC#CCn1c(N2CCN(C(=O)Nc3cccc(C(F)(F)F)c3)CC2)nc2c1c(=O)n(Cc1ccc(F)c(F)c1)c(=O)n2C has an MIC of 20.3 µM (≈ 12.5 µg/mL). CC#CCn1c(N2CCN(C(=O)c3cccnc3C(F)(F)F)CC2)nc2c1c(=O)n(Cc1ccc(F)c(F)c1)c(=O)n2C showed an MIC of 41.6 µM (≈ 25 µg/mL). CC#CCn1c(N2CCN(C(=S)Nc3cccc(Cl)c3)CC2)nc2c1c(=O)n(Cc1ccc(F)c(F)c1)c(=O)n2C was tested, and the MIC was 7.17 µM (≈ 4.29 µg/mL). With CC#CCn1c(N2CCN(C(=O)c3c(F)cc(OC)cc3F)CC2)nc2c1c(=O)n(Cc1ccc(F)c(F)c1)c(=O)n2C the MIC was 41.8 µM (≈ 25 µg/mL). With CC#CCn1c(N2CCN(C(=O)C3CCC(C(F)(F)F)CC3)CC2)nc2c1c(=O)n(Cc1ccc(F)c(F)c1)c(=O)n2C (stereo not drawn) the MIC was 16.4 µM (≈ 9.97 µg/mL). With CC#CCn1c(N2CCN(C(=O)Nc3ccc(SC)cc3)CC2)nc2c1c(=O)n(Cc1ccc(F)c(F)c1)c(=O)n2C the MIC was 10.3 µM (≈ 6.13 µg/mL). Work on CC#CCn1c(N2CCN(C(=O)C34CC5CC(CC(C5)C3)C4)CC2)nc2c1c(=O)n(Cc1ccc(F)c(F)c1)c(=O)n2C yielded an MIC of 43.4 µM (≈ 25.6 µg/mL). In the case of CC#CCn1c(N2CCN(C(=O)c3ccc(C(F)(F)F)cc3)CC2)nc2c1c(=O)n(Cc1ccc(F)c(F)c1)c(=O)n2C, the MIC is reported as 51.5 µM (≈ 30.9 µg/mL). With CC#CCn1c(N2CCN(C(=O)C3CCCCN3C(=O)OC(C)(C)C)CC2)nc2c1c(=O)n(Cc1ccc(F)c(F)c1)c(=O)n2C (stereo not drawn) the MIC was 39.1 µM (≈ 25 µg/mL). CC#CCn1c(N2CCN(C(=O)c3ccccc3C(F)(F)F)CC2)nc2c1c(=O)n(Cc1ccc(F)c(F)c1)c(=O)n2C was tested, and the MIC was 41.6 µM (≈ 25 µg/mL). Compound CC#CCn1c(N2CCN(C(=O)Nc3ccc(Cl)cc3)CC2)nc2c1c(=O)n(Cc1ccc(F)c(F)c1)c(=O)n2C has an MIC of 41 µM (≈ 23.9 µg/mL). In the case of CC#CCn1c(N2CCN(S(=O)(=O)c3cccc(Cl)c3)CC2)nc2c1c(=O)n(Cc1ccc(F)c(F)c1)c(=O)n2C, the MIC is reported as 12.5 µM (≈ 7.51 µg/mL). Work on CC#CCn1c(N2CCN(C(=O)Cc3ccc(F)cc3)CC2)nc2c1c(=O)n(Cc1ccc(F)c(F)c1)c(=O)n2C yielded an MIC of 44.3 µM (≈ 25 µg/mL). CC#CCn1c(N2CCN(C(=O)COc3ccccc3)CC2)nc2c1c(=O)n(Cc1ccc(F)c(F)c1)c(=O)n2C showed an MIC of 44.5 µM (≈ 25 µg/mL). For CC#CCn1c(N2CCN(C(=S)Nc3ccccc3Cl)CC2)nc2c1c(=O)n(Cc1ccc(F)c(F)c1)c(=O)n2C, the MIC was 41.9 µM (≈ 25 µg/mL). C=CCNC(=O)N1CCN(c2nc3c(c(=O)n(Cc4ccc(F)c(F)c4)c(=O)n3C)n2CC#CC)CC1 was tested, and the MIC was 52.4 µM (≈ 26.8 µg/mL). Compound CC#CCn1c(N2CCN(C(=O)c3sccc3Cl)CC2)nc2c1c(=O)n(Cc1ccc(F)c(F)c1)c(=O)n2C has an MIC of 43.7 µM (≈ 25 µg/mL). In the case of CC#CCn1c(N2CCN(C(=O)CCc3ccc(F)cc3)CC2)nc2c1c(=O)n(Cc1ccc(F)c(F)c1)c(=O)n2C, the MIC is reported as 43.2 µM (≈ 25 µg/mL). With O=C(O)c1cn(C2CC2)c2cc(N3CCNCC3)c(F)cc2c1=O [CIPROFLOXACIN] the MIC was 0.94 µM (≈ 0.311 µg/mL). Work on CC[C@@H](CO)NCCN[C@@H](CC)CO [ETHAMBUTOL] yielded an MIC of 7.63 µM (≈ 1.56 µg/mL). For NNC(=O)c1ccncc1 [ISONIAZID], the MIC was 0.66 µM (≈ 0.0905 µg/mL).
